Measured values from PMC12951562, “SH2scan: Mapping SH2 Domain-Ligand Binding Selectivity for Inhibitors and Degraders” (Journal of Medicinal Chemistry, 2026).
Non-standard residues stand in square brackets, D forms with d. Residues, ends and D or L forms follow the SMILES beside them. pY = N[C@@H](Cc1ccc(OP(=O)(O)O)cc1)C(=O)O

Assays:
Assay in all cases: biochemical
Assay type in all cases: binding
PIK3R1(SH2dom.N-term.) = target: T1, PIK3R1(SH2dom.N-term.) (Homo sapiens, UniProt P27986)
T1 construct: SH2dom.N-term. denotes SH2 domain closest to N-terminus of protein; made in house; host or cells: HEK293 (transient transfection, unpurified extract)
T1 sequence (P27986 333-428 limits assumed): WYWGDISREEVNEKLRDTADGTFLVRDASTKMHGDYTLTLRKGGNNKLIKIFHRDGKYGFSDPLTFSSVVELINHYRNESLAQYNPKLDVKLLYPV

PIK3R2(SH2dom.N-term.) = target: T2, PIK3R2(SH2dom.N-term.) (Homo sapiens, UniProt O00459)
T2 construct: SH2dom.N-term. denotes SH2 domain closest to N-terminus of protein; made in house; host or cells: HEK293 (transient transfection, unpurified extract)
T2 sequence (O00459 330-425 limits assumed): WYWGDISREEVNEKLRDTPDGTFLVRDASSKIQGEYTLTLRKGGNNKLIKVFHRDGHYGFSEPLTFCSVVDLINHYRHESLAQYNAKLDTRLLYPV

PIK3R3(SH2dom.N-term.) = target: T3, PIK3R3(SH2dom.N-term.) (Homo sapiens, UniProt Q92569)
T3 construct: SH2dom.N-term. denotes SH2 domain closest to N-terminus of protein; made in house; host or cells: HEK293 (transient transfection, unpurified extract)

RASA1(SH2dom.N-term.) = target: T4, RASA1(SH2dom.N-term.) (Homo sapiens, UniProt P20936)
T4 construct: SH2dom.N-term. denotes SH2 domain closest to N-terminus of protein; made in house; host or cells: HEK293 (transient transfection), unpurified extract
T4 sequence (P20936 181-272 limits assumed): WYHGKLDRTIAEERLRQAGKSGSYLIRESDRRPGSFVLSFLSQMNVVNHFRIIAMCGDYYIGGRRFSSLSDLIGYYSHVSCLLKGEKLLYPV

FRK = target: T5, FRK (Homo sapiens, UniProt P42685); conditions: dose-response; read-out: KD
T5 construct: the DNA-tagged SH2 domain concentrations used in this study were <0.1 nM; made in house; host or cells: HEK293 (transient transfection; unpurified extract)
T5 sequence (P42685 116-208 limits assumed): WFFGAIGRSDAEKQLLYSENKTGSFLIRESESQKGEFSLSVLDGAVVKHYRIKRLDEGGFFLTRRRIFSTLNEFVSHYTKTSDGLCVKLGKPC

BLK = target: T6, BLK (Homo sapiens, UniProt P51451); conditions: dose-response; read-out: KD
T6 construct: the DNA-tagged SH2 domain concentrations used in this study were <0.1 nM; made in house; host or cells: HEK293 (transient transfection; unpurified extract)
T6 sequence (P51451 124-220 limits assumed): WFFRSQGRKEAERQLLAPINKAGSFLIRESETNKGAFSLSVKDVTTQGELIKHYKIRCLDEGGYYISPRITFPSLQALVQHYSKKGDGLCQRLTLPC

FYN = target: T7, FYN (Homo sapiens, UniProt P06241); conditions: dose-response; read-out: KD
T7 construct: the DNA-tagged SH2 domain concentrations used in this study were <0.1 nM; made in house; host or cells: HEK293 (transient transfection; unpurified extract)
T7 sequence (P06241 149-246 limits assumed): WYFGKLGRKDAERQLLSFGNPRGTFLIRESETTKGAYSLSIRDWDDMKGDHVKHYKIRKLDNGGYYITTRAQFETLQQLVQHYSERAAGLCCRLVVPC

YES = target: T8, YES (Homo sapiens, UniProt P07947); conditions: dose-response; read-out: KD
T8 construct: the DNA-tagged SH2 domain concentrations used in this study were <0.1 nM; made in house; host or cells: HEK293 (transient transfection; unpurified cell extract)
T8 sequence (P07947 158-255 limits assumed): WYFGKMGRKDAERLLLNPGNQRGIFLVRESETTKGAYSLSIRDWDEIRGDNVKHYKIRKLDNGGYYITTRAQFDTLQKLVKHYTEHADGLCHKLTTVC

PTPN6(SH2dom.N-term.) = target: T9, PTPN6(SH2dom.N-term.) (Homo sapiens, UniProt P29350)
T9 construct: SH2dom.N-term. denotes SH2 domain closest to N-terminus of protein; made in house; host or cells: HEK293 (transient transfection, unpurified extract)
T9 sequence (P29350 4-100 limits assumed): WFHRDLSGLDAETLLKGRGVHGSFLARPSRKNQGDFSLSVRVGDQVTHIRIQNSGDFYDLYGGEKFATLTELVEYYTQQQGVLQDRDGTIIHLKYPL

GADS = target: T10, GADS (Homo sapiens, UniProt O75791)
T10 construct: the DNA-tagged SH2 domain concentrations used in this study were <0.1 nM; made in house; host or cells: HEK293 (transient transfection; unpurified extract)
T10 sequence (O75791 58-149 limits assumed): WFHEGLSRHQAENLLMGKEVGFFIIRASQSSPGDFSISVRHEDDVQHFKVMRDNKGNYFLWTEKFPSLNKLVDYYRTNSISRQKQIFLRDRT

HSH2D = target: T11, HSH2D (Homo sapiens, UniProt Q96JZ2)
T11 construct: the DNA-tagged SH2 domain concentrations used in this study were <0.1 nM; made in house; host or cells: HEK293 (transient transfection, unpurified extract)
T11 sequence (Q96JZ2 34-125 limits assumed): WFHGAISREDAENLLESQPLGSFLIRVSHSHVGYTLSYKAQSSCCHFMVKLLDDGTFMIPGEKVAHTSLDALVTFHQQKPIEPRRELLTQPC

With `CSCC[C@H](NC(=O)[C@H](CC(=O)O)NC(=O)[C@H](CC(C)C)NC(=O)[C@H](CCSC)NC(=O)[C@@H]1CCCN1C(=O)[C@@H](NC(=O)[C@H](Cc1ccc(OP(=O)(O)O)cc1)NC(=O)[C@H](CC(=O)O)NC(=O)[C@@H](NC(=O)[C@H](CO)NC(=O)[C@H](CCC(=O)O)NC(=O)[C@H](CC(=O)O)NC(=O)[C@H](CCCCN)NC(=O)[C@H](CO)NC(=O)[C@H](CCSC)NC(=O)[C@H](CC(=O)O)NC(C)=O)C(C)C)C(C)C)C(=O)N[C@@H](CCCCN)C(N)=O` (Ac-DMSKDESVD[pY]VPMLDMK-NH2) the Kd (PIK3R1(SH2dom.N-term.)) was 41.2 ± 9.77 nM, the Kd (PIK3R2(SH2dom.N-term.)) was 46.7 ± 6.22 nM and the Kd (PIK3R3(SH2dom.N-term.)) was 78.5 ± 26.1 nM.

`CC[C@H](C)[C@H](NC(=O)[C@H](CC(N)=O)NC(=O)[C@H](CCC(=O)O)NC(=O)[C@H](CCC(=O)O)NC(=O)[C@H](CCC(=O)O)NC(C)=O)C(=O)N[C@@H](Cc1ccc(OP(=O)(O)O)cc1)C(=O)N[C@@H](CO)C(=O)N[C@H](C(=O)N1CCC[C@H]1C(=O)N[C@@H](Cc1c[nH]cn1)C(=O)N[C@@H](CC(=O)O)C(=O)N[C@@H](CO)C(=O)N[C@H](C(N)=O)[C@@H](C)O)C(C)C` (Ac-EEENI[pY]SVPHDST-NH2) showed a Kd (RASA1(SH2dom.N-term.)) of 472 ± 309 nM.

Compound `CC[C@H](C)[C@H](NC(=O)[C@@H]1CCCN1C(=O)[C@@H](NC(=O)[C@H](CCC(=O)O)NC(=O)[C@H](CCC(=O)O)NC(=O)[C@H](Cc1ccc(OP(=O)(O)O)cc1)NC(=O)[C@H](CCC(N)=O)NC(=O)[C@@H]1CCCN1C(=O)[C@H](CCC(=O)O)NC(C)=O)[C@@H](C)CC)C(=O)N[C@@H](CCCCN)C(=O)N[C@@H](CCC(N)=O)C(N)=O` (Ac-EPQ[pY]EEIPIKQ-NH2) has a Kd (FRK) of 6980 ± 1930 nM.

`CC[C@H](C)[C@H](NC(=O)[C@@H]1CCCN1C(=O)[C@@H](NC(=O)[C@H](CCC(=O)O)NC(=O)[C@H](CCC(=O)O)NC(=O)[C@H](Cc1ccc(OP(=O)(O)O)cc1)NC(=O)[C@H](CCC(N)=O)NC(=O)[C@@H]1CCCN1C(=O)[C@H](CCC(=O)O)NC(C)=O)[C@@H](C)CC)C(=O)N[C@@H](Cc1ccc(O)cc1)C(=O)N[C@@H](CC(C)C)C(=O)N[C@@H](CCCCN)C(N)=O` (Ac-EPQ[pY]EEIPIYLK-NH2) was tested, and the Kd (BLK) was 488 ± 188 nM, the Kd (FYN) was 31.8 ± 2.15 nM and the Kd (YES) was 234 ± 37.6 nM.

With `CC(=O)N[C@@H](CCC(=O)O)C(=O)N[C@@H](CCC(N)=O)C(=O)N[C@@H](CC(=O)O)C(=O)N1CCC[C@H]1C(=O)N[C@@H](CCC(N)=O)C(=O)N[C@@H](CCC(=O)O)C(=O)N[C@H](C(=O)N[C@H](C(=O)N[C@@H](Cc1ccc(OP(=O)(O)O)cc1)C(=O)N[C@@H](C)C(=O)N[C@@H](CCC(N)=O)C(=O)N[C@@H](CC(C)C)C(=O)N[C@@H](CC(N)=O)C(=O)N[C@@H](Cc1c[nH]cn1)C(N)=O)[C@@H](C)O)C(C)C` (Ac-EQDPQEVT[pY]AQLNH-NH2) the Kd (PTPN6(SH2dom.N-term.)) was 3860 ± 864 nM.

Work on `CSCC[C@H](NC(=O)[C@H](Cc1ccc(OP(=O)(O)O)cc1)NC(=O)[C@H](CC(=O)O)NC(=O)[C@H](CO)NC(C)=O)C(=O)N[C@@H](CC(N)=O)C(=O)N[C@@H](CCSC)C(=O)N[C@H](C(=O)N1CCC[C@H]1C(=O)N[C@@H](CCCNC(=N)N)C(=O)N[C@@H](CCCNC(=N)N)C(=O)N1CCC[C@H]1C(N)=O)[C@@H](C)O` (Ac-SD[pY]MNMTPRRP-NH2) yielded a Kd (GADS) of 244 ± 73.3 nM and a Kd (HSH2D) of 873 ± 159 nM.
